Laboratory results published in patent publication US6903130B1, “Pyrrolidineacetamide derivative alone or in combination for treatment of cns disorders” (UCB S.A., priority 1999, dated 2005).
Where two headings read alike, the source gives them in different places.

Key:
sound-sensitive mice [1] = assay: Audiogenic seizure testing, protection against clonic convulsions; format: in vivo, mouse; details: for ED50: Mus musculus, ip, read-out: ED50, protection against audiogenic-induced clonic convulsions
From the text: The purpose of this study was to evaluate the effect of levetiracetam on the anticonvulsivant potency of valproate in sound sensitive mice, a genetic animal model with reflex seizures. In this model of generalized epilepsy, seizures can be evoked without electrical or chemical stimulation and seizure types, at least in part, are similar in their clinical phenomenology to seizures occurring in man (Löscher W. & Schmidt D., Epilepsy Res. (1988), 2, 145-181; Buchhalter J. R., Epilepsia (1993), 34, S31-S41).
The experimental design consisted of one group receiving vehicles, another group receiving levetiracetam alone at a dose of 5.5 mg/kg and the other groups receiving different doses of valproate alone or in combination with levetiracetam. Levetiracetam alone was also tested. […] Levetiracetam and sodium valproate were both dissolved in 0.9% saline solution, to give solutions of pH 6.4 and 6.2, respectively.
The proportion of mice protected against clonic convulsions was calculated and used as the end point for the anticonvulsant activity.
Methods used for calculation and statistical analysis are described hereafter: • A response to drug treatment was expressed as the proportion of animals protected against induced convulsions, or showing an impairment of the rotarod performance, at each individual dose. […] From these formulations, the dose of valproate, considered as expected value, that should be associated to a constant dose of levetiracetam in order to afford 50% of protection, may be calculated as: [formula] for the additive model [formula] for the independent model.
These calculated doses (Vm50 expected) may then be compared to the observed doses of valproate which, in combination with a constant dose of levetiracetam, induce an effect corresponding to 50% protection (Vm50 observed). […]

epileptic patients = assay: Tolerability studies in epileptic patients; format: in vivo, human; details: doses up to 4000 mg/day; preliminary data
[2] = tested on: 55 different binding sites including different receptor systems, reuptake sites, second messenger systems and channel proteins; details: in vitro; cited from earlier work
sound-sensitive mice [3] = assay: Rotarod test in sound-sensitive mice
[4] = levetiracetam 5.5 mg/kg i.p. alone, inferred from dose-response relation

In the case of CC[C@@H](C(N)=O)N1CCCC1=O [Levetiracetam, (S)-(−)α-ethyl-2-oxo-1-pyrrolidineacetamide], the ED50 (sound-sensitive mice [1]) is reported as 10 mg/kg, the “animals protected against audiogenic-induced clonic convulsions” value (sound-sensitive mice [1]; [4]) is reported as 20% and the “tolerability (in words)” value (epileptic patients) is reported as “good tolerability”. The “displacement of ligands specific for 55 different binding sites” value [2] was “not revealed any significant displacement”, the “ED50 (TD50), impairment of rotarod performance” value (sound-sensitive mice [3]; compound alone, i.p., sound-sensitive mice) was 360.7 mg/kg and the “animals showing an impairment of the rotarod performance” value (sound-sensitive mice [3]; [4]) was 4%.

For CCCC(CCC)C(=O)[O-].[Na+] [Valproate, sodium valproate], the ED50 (sound-sensitive mice [1]; compound alone, i.p., LOGIT-LOG DOSE regression) was 122 mg/kg and the “Impairment in the performance within the rotarod test” value (sound-sensitive mice [3]; valproate 122 mg/kg + saline (treatment protecting 50% of the mice)) was 30%.
